The source of these data is patent publication US9670227B2, “Thienopyrimidine derivatives, a process for their preparation and pharmaceutical compositions containing them” (LES LABORATOIRES SERVIER, priority 2013, dated 2017).

For this test, the target named is Mcl-1 protein (UniProtKB primary accession number: Q07820) (Homo sapiens, UniProt Q07820). Description: Inhibition of Mcl-1 by fluorescence polarisation, Method 1. As to conditions: for percentage fluorescence polarisation inhibition, Mcl-1 FP: partial inhibitors; for IC50: fluorescence polarisation, Method 1, or Method 2, read-out: IC50 (M) Mcl-1 FP. Format: binding. In outline:
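An 11-point DMSO dilution of compound is mixed with buffer (10 mM HEPES, 150 mM NaCl, 0.05% Tween 20, pH 7.4) carrying 1 nM fluorescein-labelled ligand and 5 nM Mcl-1, final concentrations. Displacement is monitored by fluorescence polarisation.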
(In general: In fluorescence polarisation assays a small probe gives low polarisation when free and higher when bound to something large.)

Chain of Mcl-1 protein (Q07820 whole entry): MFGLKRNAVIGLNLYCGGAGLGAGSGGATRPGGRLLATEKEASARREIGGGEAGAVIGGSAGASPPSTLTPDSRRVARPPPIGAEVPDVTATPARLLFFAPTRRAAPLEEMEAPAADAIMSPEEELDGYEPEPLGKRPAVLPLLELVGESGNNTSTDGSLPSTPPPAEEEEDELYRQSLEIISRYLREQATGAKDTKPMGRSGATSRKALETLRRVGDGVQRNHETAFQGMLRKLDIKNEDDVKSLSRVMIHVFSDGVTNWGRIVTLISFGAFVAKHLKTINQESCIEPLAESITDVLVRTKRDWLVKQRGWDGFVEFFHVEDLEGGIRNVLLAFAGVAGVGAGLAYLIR

`CCOC(=O)[C@@H](Cc1ccccc1OCC(F)(F)F)Oc1ncnc2sc(-c3ccc(F)cc3)c(-c3ccc(OCCN(C)C)c(Cl)c3C)c12` [Example 634, ethyl (2R)-2-{[(5Sa)-5-{3-chloro-4-[2-(dimethylamino)ethoxy]-2-methylphenyl}-6-(4-fluorophenyl)thieno[2,3-d]pyrimidin-4-yl]oxy}-3-[2-(2,2,2-trifluoroethoxy)phenyl]propanoate]: for the setting “@ 10 uM test compound”, the “percentage fluorescence polarisation inhibition, Mcl-1 FP” value is listed as 10.7% @ 10 uM. For the molecule `CCOC(=O)[C@@H](Cc1ccccc1OCC(F)(F)F)Oc1ncnc2sc(-c3ccc(F)cc3)c(-c3ccc(OCCN4CCN(C)CC4)c(Cl)c3C)c12` [Example 635, ethyl (2R)-2-{[(5Sa)-5-{3-chloro-2-methyl-4-[2-(4-methylpiperazin-1-yl)ethoxy]phenyl}-6-(4-fluorophenyl)thieno[2,3-d]pyrimidin-4-yl]oxy}-3-[2-(2,2,2-trifluoroethoxy)phenyl]propanoate], the “percentage fluorescence polarisation inhibition, Mcl-1 FP” value (@ 10 uM test compound) is 50.75% @ 10 uM. Take `CCOC(=O)[C@@H](Cc1ccccc1OC)Oc1ncnc2sc(-c3ccsc3)c(-c3ccc(O)c(Cl)c3C)c12` [Example 636, ethyl (2R)-2-{[(5Sa)-5-(3-chloro-4-hydroxy-2-methylphenyl)-6-(thiophen-3-yl)thieno[2,3-d]pyrimidin-4-yl]oxy}-3-(2-methoxyphenyl)propanoate]: the “percentage fluorescence polarisation inhibition, Mcl-1 FP” value (@ 1000 uM test compound) was 71.7 % @ 1000 uM. Regarding `CCOC(=O)[C@@H](Cc1ccccc1OCC(F)(F)F)Oc1ncnc2sc(-c3ccc(F)cc3)c(-c3ccc(OCCN4CCOCC4)c(Cl)c3C)c12` [Example 637, ethyl (2R)-2-{[(5Sa)-5-{3-chloro-2-methyl-4-[2-(morpholin-4-yl)ethoxy]phenyl}-6-(4-fluorophenyl)thieno[2,3-d]pyrimidin-4-yl]oxy}-3-[2-(2,2,2-trifluoroethoxy)phenyl]propanoate], the “percentage fluorescence polarisation inhibition, Mcl-1 FP” value (@ 10 uM test compound) was 5.9% @ 10 uM.

`COc1ccccc1C[C@@H](Oc1ncnc2sc(-c3ccc(F)cc3)c(-c3ccc(OCCN4CCN(C)CC4)c(Cl)c3C)c12)C(=O)Oc1ccc2c(c1)CCC2` [Example 640, 2,3-dihydro-1H-inden-5-yl (2R)-2-{[(5Sa)-5-{3-chloro-2-methyl-4-[2-(4-methylpiperazin-1-yl)ethoxy]phenyl}-6-(4-fluorophenyl)thieno[2,3-d]pyrimidin-4-yl]oxy}-3-(2-methoxyphenyl)propanoate]: under “@ 10 uM test compound”, the “percentage fluorescence polarisation inhibition, Mcl-1 FP” value is recorded as 42.4% @ 10 uM. What is called IC50 is the concentration that inhibits the measured activity by half. On to `COc1ccccc1CC(Oc1ncnc2sc(-c3ccc(F)cc3)c(-c3ccc(OCCN4CCN(C)CC4)c(Cl)c3C)c12)C(=O)OCC(F)(F)F` [Example 641, 2,2,2-trifluoroethyl (2R)-2-{[(5Sa)-5-{3-chloro-2-methyl-4-[2-(4-methylpiperazin-1-yl)ethoxy]phenyl}-6-(4-fluorophenyl)thieno[2,3-d]pyrimidin-4-yl]oxy}-3-(2-methoxyphenyl)propanoate], for which the IC50 came out at 9.6e-07 M. Take `CCOC(=O)[C@@H](Cc1ccccc1OC)Oc1ncnc2sc(-c3ccc(F)cc3)c(-c3ccc(OCCN4CCN(C)CC4)c(Cl)c3C)c12` [Example 642, ethyl (2R)-2-{[(5Sa)-5-{3-chloro-2-methyl-4-[2-(4-methylpiperazin-1-yl)ethoxy]phenyl}-6-(4-fluorophenyl)thieno[2,3-d]pyrimidin-4-yl]oxy}-3-(2-methoxyphenyl)propanoate]: the “percentage fluorescence polarisation inhibition, Mcl-1 FP” value (@ 10 uM test compound) stood at 11% @ 10 uM. Consider `Cc1c(-c2c(-c3ccc(F)cc3)sc3ncnc(OC(Cc4ccccc4OCC4CCCO4)C(=O)O)c23)ccc(OCCN2CCN(CCCCN)CC2)c1Cl` [Example 645, (2R)-2-{[(5Sa)-5-(4-{2-[4-(4-aminobutyl)piperazin-1-yl]ethoxy}-3-chloro-2-methylphenyl)-6-(4-fluorophenyl)thieno[2,3-d]pyrimidin-4-yl]oxy}-3-{2-[(2R)-tetrahydrofuran-2-ylmethoxy]phenyl}propanoic acid], for which the IC50 worked out at 2.2e-08 M.

In the case of `Cc1c(-c2c(-c3ccc(F)cc3)sc3ncnc(OC(Cc4ccccc4OCC4CCCO4)C(=O)O)c23)ccc(OCCN2CCOCC2)c1Cl` [Example 648, (2R)-2-{[(5Sa)-5-{3-chloro-2-methyl-4-[2-(morpholin-4-yl)ethoxy]phenyl}-6-(4-fluorophenyl)thieno[2,3-d]pyrimidin-4-yl]oxy}-3-{2-[(2R)-tetrahydrofuran-2-ylmethoxy]phenyl}propanoic acid], the IC50 came out at 1.4e-08 M. On to `COCCCc1ccccc1CC(Oc1ncnc2sc(-c3ccc(F)cc3)c(-c3ccc(OCCN4CCN(C)CC4)c(Cl)c3C)c12)C(=O)O` [Example 655, (2R)-2-{[(5Sa)-5-{3-chloro-2-methyl-4-[2-(4-methylpiperazin-1-yl)ethoxy]phenyl}-6-(4-fluorophenyl)thieno[2,3-d]pyrimidin-4-yl]oxy}-3-[2-(3-methoxypropyl)phenyl]propanoic acid], for which the IC50 was 2.6e-08 M. Turning to `Cc1c(-c2c(-c3ccc(F)cc3)sc3ncnc(OC(Cc4ccccc4OCC(F)(F)F)C(=O)O)c23)ccc(OCCN2CCOCC2)c1Cl` [Example 657, (2R)-2-{[(5Sa)-5-{3-chloro-2-methyl-4-[2-(morpholin-4-yl)ethoxy]phenyl}-6-(4-fluorophenyl)thieno[2,3-d]pyrimidin-4-yl]oxy}-3-[2-(2,2,2-trifluoroethoxy)phenyl]propanoic acid], the IC50 was 2.1e-08 M. Regarding `COc1ccc(-c2c(-c3ccc(F)cc3)sc3ncnc(OC(Cc4ccccc4OCc4ccnc(N(C)C)n4)C(=O)O)c23)c(C)c1Cl` [Example 660, (2R)-2-{[(5Sa)-5-(3-chloro-4-methoxy-2-methylphenyl)-6-(4-fluorophenyl)thieno[2,3-d]pyrimidin-4-yl]oxy}-3-(2-{[2-(dimethylamino)pyrimidin-4-yl]methoxy}phenyl)propanoic acid], the IC50 amounted to 5.1e-08 M. On to `COc1ccc(-c2c(-c3ccc(F)cc3)sc3ncnc(OC(Cc4ccccc4OCCN4CCN(C)CC4)C(=O)O)c23)c(C)c1Cl` [Example 661, (2R)-2-{[(5Sa)-5-(3-chloro-4-methoxy-2-methylphenyl)-6-(4-fluorophenyl)thieno[2,3-d]pyrimidin-4-yl]oxy}-3-{2-[2-(4-methylpiperazin-1-yl)ethoxy]phenyl}propanoic acid], for which the IC50 amounted to 1e-07 M. `COc1ccc(-c2c(-c3ccc(F)cc3)sc3ncnc(OC(Cc4ccccc4OCCN(C)C)C(=O)O)c23)c(C)c1Cl` [Example 662, (2R)-2-{[(5Sa)-5-(3-chloro-4-methoxy-2-methylphenyl)-6-(4-fluorophenyl)thieno[2,3-d]pyrimidin-4-yl]oxy}-3-{2-[2-(dimethylamino)ethoxy]phenyl}propanoic acid]: the IC50 was 2.7e-07 M. The same measure, in the same setting: with `COc1ccc(-c2c(-c3ccc(F)cc3)sc3ncnc(OC(Cc4ccccc4OCc4ccnn4CCN(C)C)C(=O)O)c23)c(C)c1Cl` [Example 663, (2R)-2-{[(5Sa)-5-(3-chloro-4-methoxy-2-methylphenyl)-6-(4-fluorophenyl)thieno[2,3-d]pyrimidin-4-yl]oxy}-3-[2-({1-[2-(dimethylamino)ethyl]-1H-pyrazol-5-yl}methoxy)phenyl]propanoic acid] the figure was 2.5e-08 M. `Cc1c(Cl)cccc1-c1c(-c2ccco2)sc2ncnc(OC(Cc3ccccc3OCCN3CCN(C)CC3)C(=O)O)c12` [Example 666, (2R)-2-{[(5Sa)-5-(3-chloro-2-methylphenyl)-6-(furan-2-yl)thieno[2,3-d]pyrimidin-4-yl]oxy}-3-{2-[2-(4-methylpiperazin-1-yl)ethoxy]phenyl}propanoic acid]: the IC50 was determined as 7.7e-08 M. Turning to `Cc1c(Cl)cccc1-c1c(-c2ccco2)sc2ncnc(OC(Cc3ccccc3OCCN3CCN(C)CC3)C(=O)O)c12` [Example 667, (2S)-2-{[(5Ra)-5-(3-chloro-2-methylphenyl)-6-(furan-2-yl)thieno[2,3-d]pyrimidin-4-yl]oxy}-3-{2-[2-(4-methylpiperazin-1-yl)ethoxy]phenyl}propanoic acid], the IC50 was 2.1e-06 M. Take `Cc1c(-c2c(-c3ccco3)sc3ncnc(OC(Cc4ccccc4OCc4ccccn4)C(=O)O)c23)ccc(O)c1Cl` [Example 674, (2R)-2-{[(5Sa)-5-(3-chloro-4-hydroxy-2-methylphenyl)-6-(furan-2-yl)thieno[2,3-d]pyrimidin-4-yl]oxy}-3-[2-(pyridin-2-ylmethoxy)phenyl]propanoic acid]: the IC50 was 2.1e-08 M. For `CC#Cc1sc2ncnc(OC(Cc3ccccc3OC)C(=O)O)c2c1-c1ccc(OCCN2CCOCC2)c(Cl)c1C` [Example 685, (2R)-2-{[(5Sa)-5-{3-chloro-2-methyl-4-[2-(morpholin-4-yl)ethoxy]phenyl}-6-(prop-1-yn-1-yl)thieno[2,3-d]pyrimidin-4-yl]oxy}-3-(2-methoxyphenyl)propanoic acid], the IC50 stood at 1.2e-08 M. Same read-out and setting: in the case of `CC#Cc1sc2ncnc(O[C@H](Cc3ccccc3OC)C(=O)O)c2c1-c1ccc(OCCN2CCN(C)CC2)c(F)c1C` [Example 686, (2R)-2-{[(5Ra)-5-{3-fluoro-2-methyl-4-[2-(4-methylpiperazin-1-yl)ethoxy]phenyl}-6-(prop-1-yn-1-yl)thieno[2,3-d]pyrimidin-4-yl]oxy}-3-(2-methoxyphenyl)propanoic acid] it was 1e-06 M. With `COc1nccc(COc2ccccc2C[C@@H](Oc2ncnc3sc(-c4ccc(F)c(OCCN5CCN(C)CC5)c4)c(-c4ccc(OC)c(Cl)c4C)c23)C(=O)O)n1` [Example 697, (2R)-2-{[(5Ra)-5-(3-chloro-4-methoxy-2-methylphenyl)-6-{4-fluoro-3-[2-(4-methylpiperazin-1-yl)ethoxy]phenyl}thieno[2,3-d]pyrimidin-4-yl]oxy}-3-{2-[(2-methoxypyrimidin-4-yl)methoxy]phenyl}propanoic acid], the “percentage fluorescence polarisation inhibition, Mcl-1 FP” value (@ 1 uM test compound) amounted to 45.55% @ 1 uM.
